Tests used:
[1] = target: T1, human VDR (Homo sapiens, UniProt P11473); assay: Evaluation of VDR transcription activity in human osteoblasts (HOS cells), luciferase reporter; format: cell-based; settings: read-out: Activity (EC50 of VDR transcriptional activity)
T1 construct: expressed in transfected cells; host or cells: HOS cells (ATCC), human osteoblast line; pcDNA3 expression vector
T1 sequence (P11473 1-427): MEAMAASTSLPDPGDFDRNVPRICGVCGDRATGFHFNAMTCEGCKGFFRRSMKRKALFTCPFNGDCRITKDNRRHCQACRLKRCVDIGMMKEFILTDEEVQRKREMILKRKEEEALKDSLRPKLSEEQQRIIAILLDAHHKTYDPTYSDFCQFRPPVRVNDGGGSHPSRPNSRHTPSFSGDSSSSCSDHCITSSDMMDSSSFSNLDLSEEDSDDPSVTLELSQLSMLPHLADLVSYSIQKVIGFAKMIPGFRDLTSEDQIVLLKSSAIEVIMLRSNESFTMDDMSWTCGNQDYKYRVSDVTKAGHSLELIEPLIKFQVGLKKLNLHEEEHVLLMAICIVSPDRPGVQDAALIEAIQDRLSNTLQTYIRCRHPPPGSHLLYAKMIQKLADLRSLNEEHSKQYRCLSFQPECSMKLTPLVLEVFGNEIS
T1 sequence (P19793 1-462 partner): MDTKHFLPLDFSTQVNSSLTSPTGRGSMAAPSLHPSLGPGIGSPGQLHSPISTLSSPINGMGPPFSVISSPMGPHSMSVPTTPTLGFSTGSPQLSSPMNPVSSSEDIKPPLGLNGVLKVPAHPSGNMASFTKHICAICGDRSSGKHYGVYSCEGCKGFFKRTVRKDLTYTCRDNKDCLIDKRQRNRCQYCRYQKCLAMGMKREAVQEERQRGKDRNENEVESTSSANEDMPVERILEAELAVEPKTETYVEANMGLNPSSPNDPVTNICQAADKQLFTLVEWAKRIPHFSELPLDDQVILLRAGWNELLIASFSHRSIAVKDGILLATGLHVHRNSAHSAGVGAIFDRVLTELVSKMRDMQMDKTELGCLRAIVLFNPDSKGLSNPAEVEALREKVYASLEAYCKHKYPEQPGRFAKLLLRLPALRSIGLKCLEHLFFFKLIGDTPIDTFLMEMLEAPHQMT
Procedure: (1) A reporter vector was constructed using pGL4.26 vector (Promega Corporation) and incorporating a sequence of DR3 (×4) gene promoter portion upstream of the luciferase gene. An expression vector was constructed by inserting a DNA sequence encoding human VDR and human RXRα into pcDNA3 vector (Thermo Fisher Scientific, Inc.). Human RenillaLuc-CMV vector (Promega Corporation) was used for the correction of gene transfer efficiency. HOS cells (ATCC) were cultured in DMEM medium containing 10% FBS under the condition of 37° C. and 5% CO2, and passaged every 2 or 3 days. (2) The passaged cells were collected by centrifugation and dispersed in phenol red free DMEM medium containing deactivated and 5% charcoal-treated fetal bovine serum (CSS) at a density of 4×10^5 cells/mL, and then the various vectors described in (1) were introduced using Lipofectamine LTX (Thermo Fisher Scientific, Inc.) reagent at a ratio of 0.25 mL per 1 mL of the cell solution. […] (3) After the incubation for 21 hours under the condition of 37° C. and 5% CO2, the luciferase activity was measured by multi-label counter EnVision (PerkinElmer, Inc.) using Dual-Glo Luciferase Assay kit (Promega Corporation). At the same time, the activity of Renilla luciferase was measured and used to correct the gene transfer efficiency.

[2] = tested on: rat oligodendrocyte progenitor cells; assay: Promotive activity of rat oligodendrocyte progenitor cell differentiation-2 (immunostaining of MBP); format: cell-based; settings: Test 2; vitamin D derivative 2 μM, T3 30 nM, 4 days; DMSO 0.07
Procedure: The promotive activity of oligodendrocyte progenitor cell (OPC) differentiation of the vitamin D derivatives was evaluated by immunostaining of MBP.
Subsequently, oligodendrocyte progenitor cell separation medium was added to the flask, and the mixture was similarly shaken for about 22 hours (37° C., 200 rpm), and the supernatant was collected to prepare oligodendrocyte progenitor cells.

Structure (SMILES) | EC50 [1] | mean (number of MBP-positive cells/number of Hoechst33342-positive cells) [2]
C[C@H](CN1CC[C@@H](F)C1)[C@H]1CC[C@H]2/C(=C/C=C3C[C@@H](O)C[C@H](O)C3)CCC[C@]12C [Compound B013, (1R,3R)-5-(2-((1R,3aS,7aR,E)-1-((S)-1-((R)-3-fluoropyrrolidin-1-yl)propan-2-yl)-7a-methyloctahydro-4H-inden-4-ylidene)ethylidene)cyclohexane-1,3-diol] | 100 to 1000 nM | 
C[C@H](CN1CC[C@@H](CC(F)F)C1)[C@H]1CC[C@H]2/C(=C/C=C3C[C@@H](O)C[C@H](O)C3)CCC[C@]12C [Compound B043, (1R,3R)-5-(2-((1R,3aS,7aR,E)-1-((S)-1-((S)-3-(2,2-difluoroethyl)pyrrolidin-1-yl)propan-2-yl)-7a-methyloctahydro-4H-inden-4-ylidene)ethylidene)cyclohexane-1,3-diol] |  | 0.53

From patent publication US20250195488A1, “MEDICINE CONTAINING VITAMIN D DERIVATIVE OR PHARMACEUTICALLY ACCEPTABLE SALT OR SOLVATE THEREOF, USED IN COMBINATION WITH IMMUNOMODULATORY SUBSTANCE” (TEEJIN PHARMA LIMITED, priority 2022, published 2025)
